Data taken from ChEMBL document CHEMBL4673219, “Novel 5,6-disubstituted pyrrolo[2,3-d]pyrimidine derivatives as broad spectrum antiproliferative agents: Synthesis, cell based assays, kinase profile and molecular docking study” (Bioorg Med Chem, 2018).

Tests used:
[1] = test system: HCT-116; assay: Antiproliferative activity against human HCT-116 cells assessed as cell growth inhibition at 10 uM measured after 72 hrs by MTT assay relative to control; format: functional; conditions: read-out: GI
[2] = test system: SK-BR-3; assay: Antiproliferative activity against human SK-BR-3 cells assessed as cell growth inhibition measured after 72 hrs by MTT assay; format: functional
[3] = test system: HCT-116; assay: Antiproliferative activity against human HCT-116 cells assessed as cell growth inhibition measured after 72 hrs by MTT assay; format: functional
[4] = test system: SK-BR-3; assay: Antiproliferative activity against human SK-BR-3 cells assessed as cell growth inhibition at 10 uM measured after 72 hrs by MTT assay relative to control; format: functional; conditions: read-out: GI
[5] = test system: MCF7; assay: Antiproliferative activity against human MCF7 cells assessed as cell growth inhibition at 10 uM measured after 72 hrs by MTT assay relative to control; format: functional; conditions: read-out: GI
[6] = test system: MCF7; assay: Antiproliferative activity against human MCF7 cells assessed as cell growth inhibition measured after 72 hrs by MTT assay; format: functional
[7] = target: Fibroblast growth factor receptor 1 (Homo sapiens) (UniProt P11362); assay: Inhibition of human FGFR1 at 10 uM using myelin basic protein as substrate incubated for 40 mins in presence of [gamma33P]ATP by scintillation counting method relative to control
Chain of Fibroblast growth factor receptor 1 (Homo sapiens) (P11362 22-822 limits assumed): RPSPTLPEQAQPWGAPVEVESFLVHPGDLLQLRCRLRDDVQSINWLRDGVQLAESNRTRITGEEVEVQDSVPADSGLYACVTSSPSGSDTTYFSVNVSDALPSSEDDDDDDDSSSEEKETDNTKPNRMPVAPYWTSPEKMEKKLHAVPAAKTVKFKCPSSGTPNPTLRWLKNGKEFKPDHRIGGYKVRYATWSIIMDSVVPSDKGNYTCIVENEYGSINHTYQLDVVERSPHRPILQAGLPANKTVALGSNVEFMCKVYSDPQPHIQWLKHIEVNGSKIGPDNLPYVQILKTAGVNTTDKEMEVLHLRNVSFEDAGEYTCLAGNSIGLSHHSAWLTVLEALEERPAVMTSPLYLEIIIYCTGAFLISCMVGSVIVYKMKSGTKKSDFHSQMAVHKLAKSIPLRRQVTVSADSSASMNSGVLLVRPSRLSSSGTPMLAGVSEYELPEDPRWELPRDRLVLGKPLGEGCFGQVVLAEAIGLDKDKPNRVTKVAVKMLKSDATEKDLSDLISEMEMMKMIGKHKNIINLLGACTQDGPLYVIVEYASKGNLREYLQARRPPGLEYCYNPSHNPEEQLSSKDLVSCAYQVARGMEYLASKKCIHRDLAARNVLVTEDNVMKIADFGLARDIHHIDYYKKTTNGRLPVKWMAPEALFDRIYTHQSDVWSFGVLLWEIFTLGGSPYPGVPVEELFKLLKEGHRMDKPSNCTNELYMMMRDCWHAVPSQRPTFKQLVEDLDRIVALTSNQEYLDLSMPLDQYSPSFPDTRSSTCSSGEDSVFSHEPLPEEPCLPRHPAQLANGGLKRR

[8] = target: High affinity nerve growth factor receptor (Homo sapiens, UniProt P04629); assay: Inhibition of human Trk-A using myelin basic protein as substrate incubated for 40 mins in presence of [gamma33P]ATP by scintillation counting method
Chain of High affinity nerve growth factor receptor (P04629 whole entry): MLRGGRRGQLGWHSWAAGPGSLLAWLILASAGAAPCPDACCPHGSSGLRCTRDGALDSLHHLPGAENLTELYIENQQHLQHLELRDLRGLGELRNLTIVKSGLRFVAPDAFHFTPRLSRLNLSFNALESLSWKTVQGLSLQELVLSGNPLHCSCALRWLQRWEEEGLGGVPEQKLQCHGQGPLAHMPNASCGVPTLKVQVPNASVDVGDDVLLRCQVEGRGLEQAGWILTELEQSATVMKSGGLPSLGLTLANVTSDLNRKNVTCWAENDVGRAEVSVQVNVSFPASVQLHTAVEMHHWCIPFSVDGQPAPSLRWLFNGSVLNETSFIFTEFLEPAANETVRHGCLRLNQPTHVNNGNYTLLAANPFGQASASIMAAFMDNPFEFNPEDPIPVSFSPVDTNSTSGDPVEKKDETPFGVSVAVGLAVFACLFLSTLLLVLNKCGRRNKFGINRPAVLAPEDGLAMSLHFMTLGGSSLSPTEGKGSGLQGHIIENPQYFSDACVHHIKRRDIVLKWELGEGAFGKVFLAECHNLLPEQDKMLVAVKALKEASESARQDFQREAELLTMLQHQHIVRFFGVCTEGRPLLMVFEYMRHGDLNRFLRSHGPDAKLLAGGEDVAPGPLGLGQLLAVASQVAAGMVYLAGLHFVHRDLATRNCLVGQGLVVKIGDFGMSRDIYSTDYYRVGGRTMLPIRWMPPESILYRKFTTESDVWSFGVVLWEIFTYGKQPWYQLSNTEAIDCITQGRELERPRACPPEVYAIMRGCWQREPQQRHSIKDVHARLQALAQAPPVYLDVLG

[9] = target: Fibroblast growth factor receptor 2 (Homo sapiens) (UniProt P21802); assay: Inhibition of human FGFR2 at 10 uM using myelin basic protein as substrate incubated for 40 mins in presence of [gamma33P]ATP by scintillation counting method relative to control
Chain of Fibroblast growth factor receptor 2 (Homo sapiens) (P21802 22-821 limits assumed): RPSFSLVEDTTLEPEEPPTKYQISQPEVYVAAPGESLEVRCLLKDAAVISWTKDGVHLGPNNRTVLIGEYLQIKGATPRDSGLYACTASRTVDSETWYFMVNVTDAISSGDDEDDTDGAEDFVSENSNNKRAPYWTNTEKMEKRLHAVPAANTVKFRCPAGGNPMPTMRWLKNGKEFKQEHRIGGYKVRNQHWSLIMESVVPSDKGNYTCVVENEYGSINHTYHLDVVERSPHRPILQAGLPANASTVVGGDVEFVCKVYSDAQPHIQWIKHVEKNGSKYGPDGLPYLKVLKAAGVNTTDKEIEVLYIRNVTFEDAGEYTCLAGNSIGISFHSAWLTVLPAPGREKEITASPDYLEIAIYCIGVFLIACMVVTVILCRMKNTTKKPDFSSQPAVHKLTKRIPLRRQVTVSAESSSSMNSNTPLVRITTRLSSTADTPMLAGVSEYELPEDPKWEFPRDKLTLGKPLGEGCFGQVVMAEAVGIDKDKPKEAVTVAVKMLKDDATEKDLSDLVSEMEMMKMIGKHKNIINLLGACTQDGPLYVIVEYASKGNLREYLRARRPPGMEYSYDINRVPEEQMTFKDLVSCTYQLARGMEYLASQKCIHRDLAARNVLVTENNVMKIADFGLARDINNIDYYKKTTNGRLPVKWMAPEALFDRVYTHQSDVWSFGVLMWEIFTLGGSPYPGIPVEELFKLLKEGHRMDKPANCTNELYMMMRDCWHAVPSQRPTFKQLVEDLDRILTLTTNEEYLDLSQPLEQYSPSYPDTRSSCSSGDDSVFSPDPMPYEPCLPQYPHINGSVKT

Row | GI50 [2] | GI50 [3] | GI50 [6] | inhibition [7] | IC50 [8] | inhibition [9] | Structure (SMILES) | inhibition of growth at 10 µM [1] | inhibition of growth at 10 µM [4] | inhibition of growth at 10 µM [5]
1 | 6.43 µM | 18.4 µM |  |  |  |  | CCCCCCCC(=O)Nc1nc2[nH]c(CN3CCN(C(c4ccccc4)c4ccccc4)CC3)c(CN3CCN(C(c4ccccc4)c4ccccc4)CC3)c2c(=O)[nH]1 | 41.5% | 67.3% | 15.2%
2 | 5.58 µM | 5.34 µM | 7.84 µM |  |  |  | CCCCCCCC(=O)Nc1nc2[nH]cc(CN3CCN(Cc4cccc(F)c4)CC3)c2c(=O)[nH]1 | 92.8% | 91.2% | 85.7%
3 |  |  |  |  |  |  | Nc1nc2[nH]cc(CN3CCN(CCN4CCOCC4)CC3)c2c(=O)[nH]1 | 15.4% | 27.1% | 19.5%
4 |  |  |  |  |  |  | Nc1nc(O)c2c(CN3CCCCC3)c[nH]c2n1 | 24.1% | 17.5% | 23.8%
5 | 0.347 µM |  | 0.392 µM |  |  |  | COc1c(C)cnc(Cn2cnc3c(Cl)nc(N)nc32)c1C [BIIB021] | 86.2% | 71.9% | 84.8%
6 | 8.04 µM |  |  |  |  |  | CCCCCCCC(=O)Nc1nc2[nH]cc(CN3CCN(c4ccc([N+](=O)[O-])cc4)CC3)c2c(=O)[nH]1 | 68.5% | 61.6% | 40.4%
7 | 11.2 µM |  |  |  |  |  | COc1ccc(N2CCN(Cc3c[nH]c4nc(N)[nH]c(=O)c34)CC2)cc1 | 69.2% | 57.5% | 51.7%
8 |  |  |  |  |  |  | CCCCCCCC(=O)Nc1nc2[nH]cc(CN3CCN(CCN4CCOCC4)CC3)c2c(=O)[nH]1 | 93% | 90.4% | 88.6%
9 |  |  |  |  |  |  | Nc1nc2[nH]cc(CN3CCN(c4ccccc4)CC3)c2c(=O)[nH]1 | 49% | 30.7% | 49.7%
10 |  |  |  |  |  |  | Nc1nc2[nH]c(CN3CCN(Cc4ccccc4)CC3)c(CN3CCN(Cc4ccccc4)CC3)c2c(=O)[nH]1 | 21.4% | 15.7% | 21.2%
11 |  |  |  |  |  |  | Nc1nc2[nH]c(CN3CCN(Cc4ccccc4F)CC3)c(CN3CCN(Cc4ccccc4F)CC3)c2c(=O)[nH]1 | 12.8% | 59% | 8.91%
12 |  |  |  |  |  |  | Nc1nc2[nH]cc(CN3CCN(Cc4cccc(F)c4)CC3)c2c(=O)[nH]1 | 31.1% | 16.8% | 20.6%
13 |  |  |  |  |  |  | Nc1nc2[nH]cc(CN3CCN(c4ccc([N+](=O)[O-])cc4)CC3)c2c(=O)[nH]1 | 28.5% | 27.5% | 26.8%
14 |  |  |  |  |  |  | CCCCCCCC(=O)Nc1nc2[nH]cc(CN3CCN(C(C)=O)CC3)c2c(=O)[nH]1 | 43.8% | 40.2% | 35.8%
15 |  |  |  |  |  |  | CCCCCCCC(=O)Nc1nc2[nH]cc(CN3CCN(C)CC3)c2c(=O)[nH]1 | 51% | 50.4% | 59.6%
16 | 0.95 µM | 7.17 µM |  |  |  |  | CCCCCCCC(=O)Nc1nc2[nH]cc(CN3CCN(c4cccc(Cl)c4)CC3)c2c(=O)[nH]1 | 72.7% | 69.7% | 43.4%
17 |  |  |  |  |  |  | Nc1nc2[nH]c(CN3CCN(Cc4cccc(F)c4)CC3)c(CN3CCN(Cc4cccc(F)c4)CC3)c2c(=O)[nH]1 | 13.6% | 10.5% | 16.1%
18 |  |  |  |  |  |  | CCCCCCCC(=O)Nc1nc2[nH]cc(CN3CCN(C(=O)c4ccco4)CC3)c2c(=O)[nH]1 | 60.2% | 71.2% | 68.5%
19 |  |  |  |  |  |  | CCCCCCCC(=O)Nc1nc2[nH]cc(Cn3ccnc3)c2c(=O)[nH]1 | 80.5% | 86.1% | 68.2%
20 |  |  |  |  |  |  | Nc1nc2[nH]c(CN3CCN(C(c4ccccc4)c4ccccc4)CC3)c(CN3CCN(C(c4ccccc4)c4ccccc4)CC3)c2c(=O)[nH]1 | 10.7% | 11.1% | 13.8%
21 |  |  |  |  |  |  | Nc1nc2[nH]c(CN3CCN(c4ccc([N+](=O)[O-])cc4)CC3)c(CN3CCN(c4ccc([N+](=O)[O-])cc4)CC3)c2c(=O)[nH]1 | 1.94% | 6.79% | 1.26%

Row | GI50 [2] | GI50 [3] | GI50 [6] | inhibition [7] | IC50 [8] | inhibition [9] | Structure (SMILES) | inhibition of growth at 10 µM [1] | inhibition of growth at 10 µM [4] | inhibition of growth at 10 µM [5]
22 |  |  |  |  |  |  | Nc1nc2[nH]cc(Cn3ccnc3)c2c(=O)[nH]1 | 50.6% | 38.8% | 38.8%
23 |  |  |  |  |  |  | CCCCCCCC(=O)Nc1nc2[nH]cc(CN3CCC(NC(=O)OC(C)(C)C)CC3)c2c(=O)[nH]1 | 50.3% | 59.3% | 36.5%
24 | 3.64 µM | 4.09 µM | 2.78 µM | 47.1% | 2.29 µM | 24% | CCCCCCCC(=O)Nc1nc2[nH]c(CN3CCN(Cc4ccccc4)CC3)c(CN3CCN(Cc4ccccc4)CC3)c2c(=O)[nH]1 | 97% | 93.4% | 96.6%
25 | 3.73 µM | 1.89 µM | 4.2 µM | 59.8% | 3.15 µM | 23% | CCCCCCCC(=O)Nc1nc2[nH]c(CN3CCN(Cc4ccccc4F)CC3)c(CN3CCN(Cc4ccccc4F)CC3)c2c(=O)[nH]1 | 97.3% | 93.4% | 96.1%
26 | 23.7 µM | 8.37 µM |  |  |  |  | N#Cc1ccccc1N1CCN(Cc2c[nH]c3nc(N)[nH]c(=O)c23)CC1 | 72% | 73.8% | 51.1%
27 | 1.23 µM | 8.94 µM |  |  |  |  | CCCCCCCC(=O)Nc1nc2[nH]cc(CN3CCN(c4ccc(OC)cc4)CC3)c2c(=O)[nH]1 | 71.4% | 71.4% | 49.2%
28 | 15 µM | 14.9 µM | 13.4 µM |  |  |  | CCCCCCCC(=O)Nc1nc2[nH]cc(CN3CCCCC3)c2c(=O)[nH]1 | 51.1% | 77.1% | 70.2%
29 |  | 20.3 µM | 33.9 µM |  |  |  | Nc1nc2[nH]cc(CN3CCN(C(c4ccccc4)c4ccccc4)CC3)c2c(=O)[nH]1 | 80.5% | 4.22% | 79.5%
30 |  |  |  |  |  |  | Nc1nc2[nH]c(CN3CCN(Cc4ccc(F)cc4)CC3)c(CN3CCN(Cc4ccc(F)cc4)CC3)c2c(=O)[nH]1 | 23% | 23.2% | 18.4%
31 | 3.6 µM | 4.13 µM | 1.75 µM | 50.5% | 2.76 µM | 14.7% | CCCCCCCC(=O)Nc1nc2[nH]c(CN3CCN(Cc4ccc(F)cc4)CC3)c(CN3CCN(Cc4ccc(F)cc4)CC3)c2c(=O)[nH]1 | 97.1% | 93.5% | 97.2%
32 |  |  |  |  |  |  | CCCCCCCC(=O)Nc1nc2[nH]c(CN3CCN(c4cc(Cl)cc(Cl)c4)CC3)c(CN3CCN(c4cc(Cl)cc(Cl)c4)CC3)c2c(=O)[nH]1 | 6.88% | 42.5% | 10.7%
33 | 8.28 µM | 7.66 µM |  |  |  |  | Nc1nc2[nH]cc(CN3CCN(c4cccc(Cl)c4)CC3)c2c(=O)[nH]1 | 79.3% | 67.5% | 54.2%
34 |  |  |  |  |  |  | Nc1nc2[nH]cc(CN3CCN(CCO)CC3)c2c(=O)[nH]1 | 17.8% | 32.8% | 18.8%
35 |  |  |  |  |  |  | CC(=O)N1CCN(Cc2c[nH]c3nc(N)[nH]c(=O)c23)CC1 | 13.8% | 24.2% | 16.2%
36 | 0.63 µM | 3.99 µM |  |  |  |  | CCCCCCCC(=O)Nc1nc2[nH]cc(CN3CCN(c4ccccc4)CC3)c2c(=O)[nH]1 | 73.9% | 67.6% | 50.3%
37 |  |  |  |  |  |  | CCCCCCCC(=O)Nc1nc2[nH]c(CN3CCN(c4ccc([N+](=O)[O-])cc4)CC3)c(CN3CCN(c4ccc([N+](=O)[O-])cc4)CC3)c2c(=O)[nH]1 | 27% | 64.6% | 12.6%
38 | 0.41 µM | 1.01 µM |  |  |  |  | CCCCCCCC(=O)Nc1nc2[nH]cc(CN3CCN(C(c4ccccc4)c4ccccc4)CC3)c2c(=O)[nH]1 | 75.5% | 67.4% | 58.4%
39 | 0.97 µM | 1.46 µM |  |  |  |  | CCCCCCCC(=O)Nc1nc2[nH]cc(CN3CCN(c4ccccc4C#N)CC3)c2c(=O)[nH]1 | 79.5% | 84.6% | 59.2%
40 |  |  |  |  |  |  | CCCCCCCC(=O)Nc1nc2[nH]cc(CN3CCN(CCO)CC3)c2c(=O)[nH]1 | 67.3% | 62.2% | 42%
41 |  |  |  |  |  |  | CN1CCN(Cc2c[nH]c3nc(N)[nH]c(=O)c23)CC1 | 16.5% | 29% | 20.2%
